In general, speed of sound refers to the propagation velocity of pressure waves in the medium. Usually mass density stands for mass per unit of volume. Broadly, the refractive index is the speed of light in vacuum divided by its phase velocity in the sample.

± gives the expanded uncertainty stated by the source.

Data on 13 compounds can be found in the NIST ThermoML archive (doi:10.1021/je201334p).

For data set [1] the following is noted: 101 kPa, Liquid; for speed of sound: Sing-around technique in a fixed-path interferometer; for mass density: Vibrating tube method.
Data set [2] is described as follows: molar heat capacity at constant pressure. To be noted: 101.33 kPa, Liquid, Small sample (50 mg) DSC.
Data set [3] can be described thus: refractive index (Na D-line) (dimensionless). As to conditions: Liquid, Standard Abbe refractometry.
Data set [4] can be described thus: xn = mol fraction of the nth substance listed. As to conditions: 308.15 K; 101 kPa; Liquid; Sing-around technique in a fixed-path interferometer; x1 = 1.
Data set [5] is described as follows: refractive index (Na D-line) (dimensionless); xn = mol fraction of the nth substance listed. As to conditions: 101 kPa, Liquid, Standard Abbe refractometry, x1 = 1.

As to `CCCC[N+]1(C)CCCC1.N#CN=C=[N-]` [1-butyl-1-methylpyrrolidinium dicyanamide], the speed of sound in data set [1] (288.15 K) came out at 1836.9 ± 2.3 m/s; in data set [1] (298.15 K), 1811.1 ± 2.3 m/s; in data set [1] (308.15 K), 1781.9 ± 2.3 m/s. For the same compound, the mass density in data set [1] (288.15 K) amounted to 1019.17 ± 1.1 kg/m3; in data set [1] (298.15 K), 1013.53 ± 1.1 kg/m3; in data set [1] (308.15 K) it was 1007.93 ± 1.1 kg/m3. The “molar heat capacity at constant pressure” value in data set [2] (288.15 K) came to 473 ± 9 J/K/mol; in data set [2] (298.15 K), 502 ± 10 J/K/mol; in data set [2] (308.15 K) it was 521 ± 10 J/K/mol. In addition, the refractive index in data set [3] (288.15 K, 101 kPa) was determined as 1.49968 ± 0.00063; in data set [3] (288.15 K, 101.33 kPa) it was 1.49968 ± 0.00063; in data set [3] (298.15 K, 101 kPa), 1.49681 ± 0.00063; in data set [3] (298.15 K, 101.33 kPa), 1.49681 ± 0.00063; in data set [3] (308.15 K, 101 kPa), 1.49392 ± 0.00064; in data set [3] (308.15 K, 101.33 kPa), 1.49392 ± 0.00064.
Consider `O` [water] + CCCC[N+]1(C)CCCC1.N#CN=C=[N-], for which, in data set [4], the speed of sound came to 1522.3 ± 1 m/s. In addition, the refractive index was 1.33349 ± 0.00041 in data set [5] (288.15 K), 1.33255 ± 0.00042 in data set [5] (298.15 K) and 1.33131 ± 0.00042 in data set [5] (308.15 K).
The corresponding values for `O` [water] + CCOS(=O)(=O)[O-].CCc1cccc[n+]1CC are 1522.3 ± 1 m/s, 1.33349 ± 0.00041, 1.33255 ± 0.00042 and 1.33131 ± 0.00042.
`COS(=O)(=O)[O-].C[n+]1ccccc1` [1-methylpyridinium methylsulfate]: the values for the speed of sound in data set [1] (288.15 K), in data set [1] (298.15 K) and in data set [1] (308.15 K) were 1901.1 ± 1.5 m/s, 1875.8 ± 1.5 m/s and 1852.4 ± 1.5 m/s, respectively. Further, the mass density in data set [1] (288.15 K) amounted to 1352.86 ± 0.69 kg/m3; in data set [1] (298.15 K), 1346.12 ± 0.68 kg/m3; in data set [1] (308.15 K) it was 1339.37 ± 0.67 kg/m3. Further, the “molar heat capacity at constant pressure” value in data set [2] (288.15 K) is given as 288 ± 6 J/K/mol; in data set [2] (298.15 K), 299 ± 6 J/K/mol; in data set [2] (308.15 K), 305 ± 6 J/K/mol. Besides, the refractive index in data set [3] (288.15 K, 101 kPa) was determined as 1.51603 ± 0.00052; in data set [3] (288.15 K, 101.33 kPa), 1.51603 ± 0.00052; in data set [3] (298.15 K, 101 kPa) it was 1.5134 ± 0.00052; in data set [3] (298.15 K, 101.33 kPa), 1.5134 ± 0.00052; in data set [3] (308.15 K, 101 kPa), 1.51077 ± 0.00052; in data set [3] (308.15 K, 101.33 kPa), 1.51077 ± 0.00052.
For `CCCCn1cc[n+](C)c1.N#CN=C=[N-]` [1-butyl-3-methylimidazolium dicyanamide], the speed of sound turned out to be 1764.3 ± 2.3 m/s in data set [1] (288.15 K), 1738.1 ± 2.3 m/s in data set [1] (298.15 K) and 1713.1 ± 2.3 m/s in data set [1] (308.15 K). The figures for the mass density in data set [1] (288.15 K), in data set [1] (298.15 K) and in data set [1] (308.15 K) were 1066.58 ± 1.3 kg/m3, 1060.17 ± 1.2 kg/m3 and 1053.83 ± 1.2 kg/m3, respectively. In addition, the “molar heat capacity at constant pressure” value stood at 367 ± 7 J/K/mol in data set [2] (288.15 K), 376 ± 8 J/K/mol in data set [2] (298.15 K) and 381 ± 8 J/K/mol in data set [2] (308.15 K). In addition, the refractive index was determined as 1.51213 ± 0.00065 in data set [3] (288.15 K, 101 kPa); 1.51213 ± 0.00065 in data set [3] (288.15 K, 101.33 kPa); 1.50893 ± 0.00065 in data set [3] (298.15 K, 101 kPa); 1.50893 ± 0.00065 in data set [3] (298.15 K, 101.33 kPa); 1.50578 ± 0.00065 in data set [3] (308.15 K, 101 kPa); 1.50578 ± 0.00065 in data set [3] (308.15 K, 101.33 kPa).
As to `CCCC[N+]1(C)CCCC1.O=S(=O)([O-])C(F)(F)F` [1-butyl-1-methylpyrrolidinium trifluoromethanesulfonate], the speed of sound in data set [1] (288.15 K) was found to be 1484.6 ± 1.4 m/s; in data set [1] (298.15 K) it was 1460.1 ± 1.4 m/s; in data set [1] (308.15 K), 1436.7 ± 1.4 m/s. The mass density in data set [1] (288.15 K) was 1260.33 ± 0.58 kg/m3; in data set [1] (298.15 K), 1252.98 ± 0.57 kg/m3; in data set [1] (308.15 K), 1245.78 ± 0.56 kg/m3. For the same compound, the “molar heat capacity at constant pressure” value in data set [2] (288.15 K) is 424 ± 8 J/K/mol; in data set [2] (298.15 K), 435 ± 9 J/K/mol; in data set [2] (308.15 K), 441 ± 9 J/K/mol. Further, the refractive index in data set [3] (288.15 K, 101 kPa) turned out to be 1.43557 ± 0.00052; in data set [3] (298.15 K, 101 kPa), 1.43289 ± 0.00052; in data set [3] (308.15 K, 101 kPa), 1.43018 ± 0.00052.
`O` [water] + CCCC[n+]1cccc(C)c1.O=S(=O)([O-])C(F)(F)F: the speed of sound in data set [4] turned out to be 1522.3 ± 1 m/s. Besides, the refractive index was found to be 1.33349 ± 0.00041 in data set [5] (288.15 K), 1.33255 ± 0.00042 in data set [5] (298.15 K) and 1.33131 ± 0.00042 in data set [5] (308.15 K).
On to `O` [water] + CCCC[N+]1(C)CCCC1.O=S(=O)([O-])C(F)(F)F, for which the speed of sound in data set [4] was 1522.3 ± 1 m/s. Moreover, the refractive index in data set [5] (288.15 K) was determined as 1.33349 ± 0.00041; in data set [5] (298.15 K) it was 1.33255 ± 0.00042; in data set [5] (308.15 K), 1.33131 ± 0.00042.
As to `O` [water] + CCCCCCn1cc[n+](C)c1.N#CN=C=[N-], the speed of sound in data set [4] came to 1522.3 ± 1 m/s. For the same compound, the refractive index in data set [5] (288.15 K) was 1.33349 ± 0.00041; in data set [5] (298.15 K) it was 1.33255 ± 0.00042; in data set [5] (308.15 K), 1.33131 ± 0.00042.
As to `O` [water] + CCCCn1cc[n+](C)c1.O=S(=O)([O-])C(F)(F)F, in data set [4], the speed of sound worked out at 1522.3 ± 1 m/s. The refractive index came to 1.33349 ± 0.00041 in data set [5] (288.15 K), 1.33255 ± 0.00042 in data set [5] (298.15 K) and 1.33131 ± 0.00042 in data set [5] (308.15 K).
In the case of `CCCCn1cc[n+](C)c1.O=S(=O)([O-])C(F)(F)F` [1-butyl-3-methylimidazolium trifluoromethanesulfonate], the speed of sound in data set [1] (288.15 K) was found to be 1414.3 ± 1.4 m/s; in data set [1] (298.15 K), 1391.4 ± 1.4 m/s; in data set [1] (308.15 K), 1369.1 ± 1.4 m/s. The mass density in data set [1] (288.15 K) was 1307.5 ± 0.63 kg/m3; in data set [1] (298.15 K), 1299.55 ± 0.62 kg/m3; in data set [1] (308.15 K) it was 1291.62 ± 0.61 kg/m3. Besides, the refractive index in data set [3] (288.15 K, 101 kPa) was determined as 1.44032 ± 0.00053; in data set [3] (288.15 K, 101.33 kPa) it was 1.44032 ± 0.00053; in data set [3] (298.15 K, 101 kPa) it was 1.43755 ± 0.00053; in data set [3] (298.15 K, 101.33 kPa) it was 1.43755 ± 0.00053; in data set [3] (308.15 K, 101 kPa) it was 1.43475 ± 0.00053; in data set [3] (308.15 K, 101.33 kPa), 1.43475 ± 0.00053.
With `O` [water] + COS(=O)(=O)[O-].C[n+]1ccccc1, in data set [4], the speed of sound turned out to be 1522.3 ± 1 m/s. Also, the refractive index is 1.33349 ± 0.00041 in data set [5] (288.15 K), 1.33255 ± 0.00042 in data set [5] (298.15 K) and 1.33131 ± 0.00042 in data set [5] (308.15 K).
For `O` [water] + CCCCn1cc[n+](C)c1.N#CN=C=[N-], the speed of sound in data set [4] is recorded as 1522.3 ± 1 m/s. In addition, the refractive index in data set [5] (288.15 K) amounted to 1.33349 ± 0.00041; in data set [5] (298.15 K), 1.33255 ± 0.00042; in data set [5] (308.15 K) it was 1.33131 ± 0.00042.
